Legend:
Type in all cases: cell-based, human
[1] = tested on: p22^phox; assay: Gene expression (PCR) of NADPH-oxidase subunit p22phox in THP-1 cells incubated with Chlamydia; settings: FIG. 16; 10^−4 to 10^−6 M
Experimental: FIG. 16 represents the genetic expression of one of the subunits of NADPH-oxidase, the p22^phox, and the effects of glucocorticoids, hydrocortisone (HCT) and methylprednisolone (MPL) (data are expressed as relative values by comparison with a reference gene).
By the PCR (<<polymerase chain reaction>>) method, it was observed that the incubation of monocytes with C. pneumoniae increased the expression of the genes (FIG. 8, column 2 compared to column 1) coding for interleukines 1β (IL-1β) (FIG. 8, part 1), 6 (IL-6) (FIG. 8, part 2) and 8 (IL-8) (FIG. 8, part 3), coding for inducible cyclo-oxygenase (COX-2) (FIG. 8, part 4) and coding for one of the subunits of NADPH-oxidase, the p22 protein (p22^phox) (FIG. 8, part 5) (results are presented as relative values by comparison with a reference gene).

[2] = tested on: THP-1 cell line; assay: Model of foam cell formation from THP-1 monocytes (Chlamydia pneumoniae, then LDL or liposomes, Oil Red O); settings: LDL
Experimental: A model of foam cell formation from monocytes (THP-1 cell line) was developed. The cells are incubated for 19 hours with Chlamydia pneumoniae. This incubation is followed by the addition of human LDL or liposomes, and another incubation period of 48 hours. At the end of this second period of incubation, the cells are fixed and stained with oil Red O (Sigma, Belgium) (Smirnova et al., 2004, Am J Physiol Heart Circ Physiol. March 11 (Epub ahead of print) to highlight the foam cells. When drugs are used in this model, they are added at the same time as the LDL or liposomes. LDL are prepared from human blood drawn on EDTA. They are isolated by sequential flotation centrifugation with increased concentrations of KBr. After their isolation, LDL are dialysed, sterilised by filtration and their purity is confirmed by electrophoresis. Liposomes are lipid vesicles prepared by extrusion with cholesterol esters and phospholipids, mimicking lipoproteins.

[3] = tested on: TNFα; assay: TNFα production (ELISA, culture supernatant) by THP-1 cells pre-incubated with Chlamydia pneumoniae; settings: 10^−9 M to 10^−5 M; THP-1 pre-incubated (19h) with Chlamydia
Experimental: (§1) By using this model, one may verify that the monocyte incubation with C. pneumoniae during 19 hours, enhances the production of TNFα(FIG. 6, part 1) and IL-8 ([…]), as measured by immunological methods (ELISA type) in the culture supernatant.

[4] = tested on: THP-1 cells conditioned with Chlamydia pneumoniae; assay: Oxidant activity (ethylene production from KMB, gas liquid chromatography) of THP-1 cells conditioned with Chlamydia pneumoniae, then stimulated by PMA; settings: for Ethylene: % of THP-1 + Chlamydia
Experimental: This model has been described in details in Mouithys Mickalad et al. (Biochem Biophys Res Comm 2001, 287: 781-788). Treatment of the Cells with Chlamydia pneumoniae:
The monocytes (in multiwell plates, 2×10^6 cells/well) are conditioned by a pre-incubation of 19 hours with elementary bodies of Chlamydia pneumoniae (at a dose equivalent to a mean endotoxin concentration of 3.3 pg). The elementary bodies are obtained by Chlamydia culture in MacCoy cells (American Type Culture Collection, Rockville, USA).
(§2) After incubation with C. pneumoniae, the cells are washed and detached from the wells; they are put in sterile vials and an oxidable substrate, α-keto-methyl butyric acid (KMB) at 10^−3 M, is added. The vial is sealed and the following reagents are added by needle puncture. through the septum: 200 U horseradish peroxidase (HRP) and 10^−7 M phorbol myristate acetate (PMA).
(§3) PMA is a monocyte activator, enhancing the superoxide anion production by these cells. Superoxide anion dismutates into hydrogen peroxide (H2O2), which is used by HRP to form more oxidant species, able to oxidize KMB, releasing ethylene. After 3 hours of incubation at 37° C, ethylene, which has accumulated in the gaseous phase of the sealed vial is measured by gas liquid chromatography, on a Porapak T column (TM) equipped with flame ionisation detector. These assays can be made with the prior addition of a reagent able to inhibit or to stimulate the monocytes, the reagent being added, either at pre-incubation (at the same time as the Chlamydia EB), or at the moment of PMA activation.

[5] = tested on: IL-8; assay: IL-8 production (ELISA, culture supernatant) by THP-1 cells pre-incubated with Chlamydia pneumoniae; settings: 10^−9 M to 10^−5 M; THP-1 pre-incubated (19h) with Chlamydia
Experimental: as §1

[6] = tested on: THP-1 cells conditioned with Escherichia Coli endotoxin (LPS); assay: Oxidant activity (ethylene production) of THP-1 cells conditioned with Escherichia Coli endotoxin (LPS), then stimulated by PMA; settings: for Ethylene: FIG. 9 part 2, % of THP-1 + LPS, PMA 10^−7 M
Experimental: FIG. 9 represents the effects of hydrocortisone (HCT) on the oxidant activity of THP-1 cells conditioned either with Chlamydia pneumoniae (part 1; n=13) or with Escherichia Coli endotoxin (LPS) (part 2), and then stimuled by PMA 10^−7 M. Ethylene is expressed in % of the value measured for THP-1 cells incubated with Chlamydia (column 2 for part 1), or incubated with LPS (column 1 for par 2).
as §2, §3
Two glucocorticoids were tested: hydrocortisone and methylprednisolone. […] On the contrary, HCT is an inhibitor on the oxidation rate when the cells are conditioned with endotoxins (LPS) of Escherichia coli (FIG. 9 part 2, columns 2, 3 and 4) (Ethylene values are expressed in % of the control cells=THP-1 cells stimulated by PMA 10^−7 M after pre-incubation with Chlamydia (part 1, column 2) or LPS ([…]

[7] = tested on: nuclear transcription factor kappaB (NF-κB); assay: Activation of NF-κB (binding to DNA) by electrophoretic mobility shift assay in THP-1 cells pre-incubated with Chlamydia; settings: for NF-κB relative value (%): THP-1 + Chlamydia, % of THP-1 without preincubation with C pneumoniae (FIG. 7)
Experimental: FIG. 7 represents the effects of pre-incubation with Chlamydia on the activity of the nuclear transcription factor kappaB (NF-kB) (column 2). NF-kB is expressed in % of column 1 (THP-1 cells without preincubation with C pneumoniae)
The activation of NF-κB was measured by the technique of <<electrophoretic mobility shift assay>> (EMSA) (Schoonbroodt et al., 2000, J Immunol. 164: 4292-4300; Nys et al., 2003, Nitric Oxide 9: 33-43) (FIG. 7). The activation of NF-κB is expressed in % of control cells (cells which have not been pre-incubated with Chlamydia) (column 1). The incubation of monocytes with C. pneumoniae activates the NF-κB binding to DNA (FIG. 7, column 2).

With `C[C@]12CCC(=O)C=C1CC[C@@H]1[C@@H]2[C@@H](O)C[C@@]2(C)[C@H]1CC[C@]2(O)C(=O)CO` [HCT, hydrocortisone] the “effect on gene expression of p22^phox” value [1] was “inhibitors”, the “effect on transformation into foam cells” value ([2]; 10^−5 M) was “favouring effect” and the “effect on transformation into foam cells” value ([2]; at 10^−5 and 10^−6 M) was “does not inhibit the transformation into foam cells”. For the same molecule, the “effect on production of TNFα” value [3] was “dose-dependent inhibiting effect”, the Ethylene ([4]; FIG. 9 part 1, 10^−4 M, PMA 10^−7 M) was 108% and the Ethylene ([4]; FIG. 9 part 1, 10^−5 M, PMA 10^−7 M) was 119%. The Ethylene ([4]; FIG. 9 part 1, 10^−6 M, PMA 10^−7 M) was 139%, the Ethylene ([4]; FIG. 19, drug alone 10^−4 M, pre-incubation with Chlamydia) was 84.0% and the Ethylene ([4]; FIG. 19, drug alone 10^−5 M, pre-incubation with Chlamydia) was 116.0%. The Ethylene ([4]; FIG. 20, drug alone 10^−4 M, pre-incubation with Chlamydia) was 98.0%, the Ethylene ([4]; FIG. 20, drug alone 10^−5 M, pre-incubation with Chlamydia) was 85.0% and the Ethylene ([4]; FIG. 21, drug alone 10^−4 M, pre-incubation with Chlamydia) was 104.0%. For the same molecule, the Ethylene ([4]; FIG. 21, drug alone 10^−5 M, pre-incubation with Chlamydia) was 72.0%, the Ethylene ([4]; FIG. 22, drug alone 10^−4 M, pre-incubation with Chlamydia) was 118.0% and the Ethylene ([4]; FIG. 22, drug alone 10^−5 M, pre-incubation with Chlamydia) was 68.1%. The “effect on oxidant activity / oxidation rate” value ([4]; drug added at cell conditioning with Chlamydia (pre-incubation 19 hours), then PMA 10^−7 M) was “either does not modify the oxidant capacity, or even increases the oxidation rate”, the “effect on production of IL-8” value [5] was “dose-dependent inhibiting effect” and the Ethylene ([6]; 10^−4 M) was 19%. For the same molecule, the Ethylene ([6]; 10^−5 M) was 50%, the Ethylene ([6]; 10^−6 M) was 57% and the “effect on oxidation rate” value ([6]; cells conditioned with endotoxins (LPS) of Escherichia coli, 10^−4 to 10^−6 M) was “inhibitor”. For the same molecule, the “NF-κB relative value (%)” value ([7]; 10^−5 M) was 396%, the “NF-κB relative value (%)” value ([7]; 10^−6 M) was 480% and the “effect on the activation of NF-κB” value ([7]; at 10^−5 and 10^−6 M) was “without significant effect”. The “activity of NF-κB” value ([7]; at 10^−6 M) was “slightly stimulated”.

— patent US20060252707A1, “Pharmaceutical composition for the treatment and/or the prevention of atherosclerosis from infectious origin” (UNIVERSITE DE LIEGE, priority 2003, published 2006)
